Reference: patent US10770169B2, “Method of providing a treatment to a subject based on a dynamic pathway map” (THE REGENTS OF THE UNIVERSITY OF CALIFORNIA, priority 2010, dated 2020)

System: panel of 55 breast cancer cell lines
Assay: Cell growth inhibition assay (Cell Titer Glo, 72 h, 9 doses; GI50, TGI, LC50)
Type: cell-based, human
Settings: for GI50: value is the negative log10 of mol/L
[1] = HCC1419 cell line, censored GI50 values
[2] = HCC1428 cell line, censored GI50 values
[3] = AU565 cell line, censored GI50 values
[4] = BT474 cell line, censored GI50 values
[5] = BT483 cell line, censored GI50 values
[6] = CAMA1 cell line, censored GI50 values
[7] = HCC1143 cell line, censored GI50 values
[8] = HCC1187 cell line, censored GI50 values
[9] = HCC1395 cell line, censored GI50 values
[10] = HCC1500 cell line, censored GI50 values
[11] = HCC1937 cell line, censored GI50 values
[12] = HCC1954 cell line, censored GI50 values

`CC(C)(C)c1cc(C=C(C#N)C#N)cc(Br)c1O` [AG1024] was tested. Which GI50 (HCC70 cell line, censored GI50 values) did it give?
The GI50 was 5.21.

What about the GI50 (HCC202 cell line, censored GI50 values) of the same molecule?
The GI50 was 4.92.

What about the GI50 [1] of the same molecule?
Its GI50 is 4.70.

What about the GI50 [2] of the same molecule?
Its GI50 is 5.05.

What about the GI50 (HCC2185 cell line, censored GI50 values) of the same molecule?
The GI50 was 5.11.

What about the GI50 (HCC3153 cell line, censored GI50 values) of the same molecule?
Its GI50 is 5.11.

And the GI50 (MDAMB134VI cell line, censored GI50 values)?
The GI50 was 4.69.

What about the GI50 (MDAMB175VII cell line, censored GI50 values) of the same molecule?
Its GI50 is 4.82.

And the GI50 (MDAMB361 cell line, censored GI50 values)?
The GI50 was 4.69.

What about the GI50 (SUM52PE cell line, censored GI50 values) of the same molecule?
The GI50 was 5.45.

And the GI50 (SUM185PE cell line, censored GI50 values)?
The GI50 was 5.57.

What about the GI50 (SUM225CWN cell line, censored GI50 values) of the same molecule?
The GI50 was 5.03.

And the GI50 (SUM1315MO2 cell line, censored GI50 values)?
Its GI50 is 5.17.

What about the GI50 (T47D cell line, censored GI50 values) of the same molecule?
The GI50 was 4.68.

What about the GI50 (UACC893 cell line, censored GI50 values) of the same molecule?
Its GI50 is 4.75.

And the GI50 (cell line AU565)?
The GI50 was 4.48.

And the GI50 (cell line BT20)?
The GI50 was 4.48.

What about the GI50 (cell line BT474) of the same molecule?
The GI50 was 4.48.

And the GI50 (cell line BT483)?
Its GI50 is 4.48.

What about the GI50 (cell line BT549) of the same molecule?
The GI50 was 4.48.

And the GI50 (cell line CAMA1)?
Its GI50 is 4.48.

And the GI50 (cell line HCC38)?
The GI50 was 4.48.

And the GI50 (cell line HCC70)?
Its GI50 is 5.21.

What about the GI50 (cell line HCC202) of the same molecule?
The GI50 was 4.92.

And the GI50 (cell line HCC1143)?
Its GI50 is 4.58.

What about the GI50 (cell line HCC1187) of the same molecule?
The GI50 was 4.48.

What about the GI50 (cell line HCC1395) of the same molecule?
Its GI50 is 4.48.

What about the GI50 (cell line HCC1419) of the same molecule?
The GI50 was 4.70.

And the GI50 (cell line HCC1428)?
Its GI50 is 5.05.

What about the GI50 (cell line HCC1500) of the same molecule?
Its GI50 is 4.58.

What about the GI50 (cell line HCC1806) of the same molecule?
The GI50 was 4.48.

What about the GI50 (cell line HCC1937) of the same molecule?
The GI50 was 4.48.

What about the GI50 (cell line HCC1954) of the same molecule?
Its GI50 is 4.50.

And the GI50 (cell line HCC2185)?
Its GI50 is 5.11.

And the GI50 (cell line HCC3153)?
Its GI50 is 5.11.

What about the GI50 (cell line LY2) of the same molecule?
Its GI50 is 4.48.

And the GI50 (cell line MCF7)?
Its GI50 is 4.48.

What about the GI50 (cell line MDAMB134V) of the same molecule?
The GI50 was 4.69.

What about the GI50 (cell line MDAMB157) of the same molecule?
Its GI50 is 4.48.

And the GI50 (cell line MDAMB175V)?
The GI50 was 4.82.

What about the GI50 (cell line MDAMB361) of the same molecule?
The GI50 was 4.69.

What about the GI50 (cell line MDAMB415) of the same molecule?
The GI50 was 4.48.

What about the GI50 (cell line MDAMB436) of the same molecule?
Its GI50 is 4.48.

What about the GI50 (cell line MDAMB453) of the same molecule?
The GI50 was 4.51.

And the GI50 (cell line MDAMB468)?
Its GI50 is 4.48.

And the GI50 (cell line SKBR3)?
Its GI50 is 4.48.

What about the GI50 (cell line SUM52PE) of the same molecule?
Its GI50 is 5.45.

And the GI50 (cell line SUM149PT)?
The GI50 was 4.48.

And the GI50 (cell line SUM185PE)?
The GI50 was 5.57.

What about the GI50 (cell line SUM225CWN) of the same molecule?
The GI50 was 5.03.

And the GI50 (cell line SUM1315MO)?
Its GI50 is 5.17.

And the GI50 (cell line T47D)?
Its GI50 is 4.68.

And the GI50 (cell line UACC812)?
Its GI50 is 4.48.

What about the GI50 (cell line UACC893) of the same molecule?
The GI50 was 4.75.

What about the GI50 (cell line ZR75B) of the same molecule?
Its GI50 is 4.48.

And the GI50 (cell line ZR751)?
Its GI50 is 4.52.

How did the “variability in cell line response” value (across the cell line panel) turn out when `O=c1cc(-c2ccccc2)oc2cc(O)c(O)c(O)c12` [baicalein] was run?
Its value is “variability in cell line response was minimal”.

Which GI50 (600MPE cell line, censored GI50 values) does the source give for `O=C1C(Cl)=C(NCCN2CCOCC2)C(=O)c2ncccc21` [NSC 663284] here?
Its GI50 is 5.34.

And the GI50 [3]?
The GI50 was 5.81.

And the GI50 (BT20 cell line, censored GI50 values)?
Its GI50 is 5.48.

And the GI50 [4]?
The GI50 was 5.56.

What about the GI50 [5] of the same molecule?
Its GI50 is 6.02.

And the GI50 [6]?
The GI50 was 5.58.

And the GI50 [7]?
The GI50 was 5.70.

And the GI50 [8]?
The GI50 was 5.68.

What about the GI50 [9] of the same molecule?
The GI50 was 6.16.

What about the GI50 [1] of the same molecule?
Its GI50 is 5.72.

And the GI50 [2]?
Its GI50 is 5.59.

What about the GI50 [10] of the same molecule?
Its GI50 is 5.42.

And the GI50 [11]?
The GI50 was 6.07.

What about the GI50 [12] of the same molecule?
Its GI50 is 5.22.

And the GI50 (cell line 600MPE)?
Its GI50 is 5.34.

What about the GI50 (cell line AU565) of the same molecule?
The GI50 was 5.81.

What about the GI50 (cell line BT20) of the same molecule?
The GI50 was 5.48.

And the GI50 (cell line BT474)?
Its GI50 is 5.56.

And the GI50 (cell line BT483)?
The GI50 was 6.02.

What about the GI50 (cell line CAMA1) of the same molecule?
The GI50 was 5.58.

And the GI50 (cell line HCC38)?
The GI50 was 5.64.

What about the GI50 (cell line HCC70) of the same molecule?
Its GI50 is 5.51.

And the GI50 (cell line HCC1143)?
Its GI50 is 5.70.

What about the GI50 (cell line HCC1187) of the same molecule?
The GI50 was 5.68.

And the GI50 (cell line HCC1395)?
The GI50 was 6.16.

What about the GI50 (cell line HCC1419) of the same molecule?
Its GI50 is 5.72.

And the GI50 (cell line HCC1428)?
Its GI50 is 5.59.

What about the GI50 (cell line HCC1500) of the same molecule?
Its GI50 is 5.42.

What about the GI50 (cell line HCC1937) of the same molecule?
Its GI50 is 6.07.

What about the GI50 (cell line HCC1954) of the same molecule?
The GI50 was 5.22.

And the GI50 (cell line HCC2185)?
The GI50 was 5.96.

What about the GI50 (cell line HCC3153) of the same molecule?
Its GI50 is 5.73.

And the GI50 (cell line LY2)?
Its GI50 is 6.27.

And the GI50 (cell line MCF7)?
The GI50 was 5.43.

And the GI50 (cell line MDAMB134V)?
The GI50 was 5.24.

What about the GI50 (cell line MDAMB175V) of the same molecule?
Its GI50 is 5.22.

And the GI50 (cell line MDAMB361)?
Its GI50 is 5.14.

And the GI50 (cell line MDAMB415)?
The GI50 was 5.59.

And the GI50 (cell line MDAMB453)?
The GI50 was 5.26.

And the GI50 (cell line MDAMB468)?
Its GI50 is 5.19.

What about the GI50 (cell line SKBR3) of the same molecule?
The GI50 was 5.86.

What about the GI50 (cell line SUM52PE) of the same molecule?
Its GI50 is 5.61.

And the GI50 (cell line SUM149PT)?
Its GI50 is 5.74.

And the GI50 (cell line SUM159PT)?
Its GI50 is 5.64.

And the GI50 (cell line SUM185PE)?
The GI50 was 6.50.

And the GI50 (cell line SUM225CWN)?
Its GI50 is 5.66.

And the GI50 (cell line SUM1315MO)?
Its GI50 is 6.00.

And the GI50 (cell line T47D)?
The GI50 was 5.19.

And the GI50 (cell line UACC812)?
Its GI50 is 5.43.

And the GI50 (cell line ZR75B)?
The GI50 was 5.26.

What about the GI50 (cell line ZR751) of the same molecule?
Its GI50 is 5.73.

What does the source list for Oxamflatin?
GI50 [3]: 6.19; GI50 [4]: 6.57; GI50 [5]: 6.15; GI50 [6]: 6.27; GI50 [7]: 6.28; GI50 [8]: 6.19; GI50 [9]: 5.64; GI50 [1]: 5.88; GI50 [2]: 6.33; GI50 [10]: 5.98; GI50 (HCC1806 cell line, censored GI50 values): 6.16; GI50 [11]: 5.84; GI50 [12]: 5.81; GI50 (cell line AU565): 6.19; GI50 (cell line BT474): 6.57; GI50 (cell line BT483): 6.15; GI50 (cell line CAMA1): 6.27; GI50 (cell line HCC38): 6.77; GI50 (cell line HCC70): 6.35; GI50 (cell line HCC1143): 6.28; GI50 (cell line HCC1187): 6.19; GI50 (cell line HCC1395): 5.64; GI50 (cell line HCC1419): 5.88; GI50 (cell line HCC1428): 6.33; GI50 (cell line HCC1500): 5.98; GI50 (cell line HCC1806): 6.16; GI50 (cell line HCC1937): 5.84; GI50 (cell line HCC1954): 5.81; GI50 (cell line HCC2185): 6.46; GI50 (cell line HCC3153): 5.82; GI50 (cell line LY2): 5.88; GI50 (cell line MDAMB134V): 6.18; GI50 (cell line MDAMB175V): 5.41; GI50 (cell line MDAMB361): 6.15; GI50 (cell line MDAMB415): 6.14; GI50 (cell line MDAMB453): 6.56; GI50 (cell line MDAMB468): 5.57; GI50 (cell line SKBR3): 5.96; GI50 (cell line SUM52PE): 6.22; GI50 (cell line SUM149PT): 6.17; GI50 (cell line SUM159PT): 6.50; GI50 (cell line SUM185PE): 6.51; GI50 (cell line SUM225CWN): 6.07; GI50 (cell line SUM1315MO): 5.64; GI50 (cell line T47D): 6.06; GI50 (cell line UACC812): 5.71; GI50 (cell line ZR75B): 6.41
